In patent publication US10933051B2, “Carbapenem compounds and compositions for the treatment of bacterial infections” (FOB Synthesis, Inc., priority 2017, dated 2021):

Key:
Test in all cases: Antimicrobial Susceptibility Test (CLSI), Test Example 2
Format in all cases: cell-based
Parameters in all cases: unit not given here
[1] = system: K. pneumoniae ATCC BAA-1904; settings: Table 4; strain produces KPC-3
Experimental: (§1) Antimicrobial Susceptibility Test was performed by the CLSI (Clinical and Laboratory Standards Institute) methods. The agar dilution method for determining antimicrobial susceptibility was carried out using Mueller Hinton-II agar and the amount of inoculation was 10^4CFU/spot. Broth dilution tests were performed using the Mueller Hinton-II broth. All assays were run with the indicated control strains, available from the ATCC (American Type Culture Collection, Rockville, Md.).

A. baumannii FSAb-065 = settings: Table 4; strain produces OXA-2, VIM-2
Experimental: as §1

E. coli FSEco-054 = settings: Table 4; strain produces ESBL
Experimental: as §1

A. baumannii FSAb-039 = settings: Table 4; strain produces OXA-51
Experimental: as §1

A. baumannii FSAb-056 = settings: Table 4; strain produces OXA-23, OXA-51
Experimental: as §1

A. baumannii FSAb-029 = settings: Table 4; strain produces OXA-2, IMP-1
Experimental: as §1

P. aeruginosa FSPa-121 = settings: Table 4; strain produces OXA-17
Experimental: as §1

SMILES | antimicrobial susceptibility, K. pneumoniae BAA-1904 [1] | antimicrobial susceptibility, A. baumannii FSAb-065 (A. baumannii FSAb-065) | antimicrobial susceptibility, E. coil FSEco-054 (E. coli FSEco-054) | antimicrobial susceptibility, A. baumannii FSAb-039 (A. baumannii FSAb-039) | antimicrobial susceptibility, A. baumannii FSAb-056 (A. baumannii FSAb-056) | antimicrobial susceptibility, A. baumannii FSAb-029 (A. baumannii FSAb-029) | antimicrobial susceptibility, P. aeruginosa FSPa-121 (P. aeruginosa FSPa-121)
C[C@@H](O)[C@H]1C(=O)N2C(C(=O)O)=C(CN(C)CCNC(=O)c3ccc(O)cc3)[C@H](C)[C@H]12 [Compound 10] | 8 | 16 | >32 | >32 | 16 | 16 | >32
C[C@@H](O)[C@H]1C(=O)N2C(C(=O)O)=C(CN(C)CCNC(=O)c3ccc(O)c(O)c3C(F)(F)F)[C@H](C)[C@H]12 [Compound 3] | 32 | 2 | 4 | 4 | 4 | 4 | 4
C[C@@H](O)[C@H]1C(=O)N2C(C(=O)[O-])=C(C[N+]3(CCNC(=O)c4ccc(O)c(O)c4F)CCCC3)[C@H](C)[C@H]12 [Compound 42] | 16 |  | 2 | 8 | 16 | 4 | 
C[C@@H](O)[C@H]1C(=O)N2C(C(=O)O)=C(CN(C)CC(NC(=O)c3ccc(O)c(O)c3Cl)C(N)=O)[C@H](C)[C@H]12 (some centres unmarked) [Compound 18] | 16 | 1 | 2 | 4 | 4 | 8 | 2
C[C@@H](O)[C@H]1C(=O)N2C(C(=O)O)=C(CN(C)CCCNC(=O)c3ccc(O)c(O)c3Cl)[C@H](C)[C@H]12 [Compound 17] | 32 | 2 | 2 | 8 | 4 | 2 | 4
C[C@@H](O)[C@H]1C(=O)N2C(C(=O)O)=C(CN3C[C@@H](NC(=O)c4ccc(O)c(O)c4Cl)C[C@@H]3C(N)=O)[C@H](C)[C@H]12 [Compound 33] | >32 | 1 | 4 | 32 | 8 | 4 | 2
C[C@@H](O)[C@H]1C(=O)N2C(C(=O)O)=C(CN3C[C@@H](O)[C@H](NC(=O)c4ccc(O)c(O)c4Cl)C3)[C@H](C)[C@H]12 [Compound 31] | 32 | 0.5 | 2 | 4 | 4 | 2 | 2
C[C@@H](O)[C@H]1C(=O)N2C(C(=O)O)=C(CN3CCCC3CNC(=O)c3ccc(O)c(O)c3Cl)[C@H](C)[C@H]12 (some centres unmarked) [Compound 35] | >32 | 2 | 2 | 8 | 4 | 4 | 4
C[C@@H](O)[C@H]1C(=O)N2C(C(=O)O)=C(CN3CC[C@H](NC(=O)c4ccc(OCc5ccccc5)c(OCc5ccccc5)c4Cl)C3)[C@H](C)[C@H]12 [Compound 28] | >32 | 0.5 | 2 | 8 | 4 | 0.5 | 2
C[C@@H](O)[C@H]1C(=O)N2C(C(=O)O)=C(CN(C)CCNC(=O)c3ccccc3Cl)[C@H](C)[C@H]12 [Compound 13] | 8 | 16 | >32 | >32 | 32 | 32 | >32
C[C@@H](O)[C@H]1C(=O)N2C(C(=O)[O-])=C(C[N+](C)(C)CCNC(=O)c3ccc(O)c(O)c3F)[C@H](C)[C@H]12 [Compound 41] | 8 |  | 4 | 16 | 32 | 8 | 
C[C@@H](O)[C@H]1C(=O)N2C(C(=O)O)=C(CN3CC[C@@H](NC(=O)c4ccc(O)c(O)c4Cl)C3)[C@H](C)[C@H]12 [Compound 29] | >32 | 1 | 2 | 8 | 4 | 1 | 2
C[C@@H](O)[C@H]1C(=O)N2C(C(=O)O)=C(CN3C[C@H](NC(=O)c4ccc(O)c(O)c4Cl)[C@@H](O)C3)[C@H](C)[C@H]12 [Compound 30] | 16 | 0.5 | 2 | 4 | 4 | 2 | 2
C[C@@H](O)[C@H]1C(=O)N2C(C(=O)O)=C(CN(C)CCNC(=O)c3ccc(OC(=O)C(C)(C)C)c(OC(=O)C(C)(C)C)c3Cl)[C@H](C)[C@H]12 [Compound 16] | >32 | 8 | 8 | 8 | 8 | 4 | 8
C[C@@H](O)[C@H]1C(=O)N2C(C(=O)O)=C(CN(C)CC(=O)NCc3ccc(O)c(O)c3Cl)[C@H](C)[C@H]12 [Compound 21] | 8 | 2 | 4 | 8 | 8 | 8 | 2
Cc1c(C(=O)NCCN(C)CC2=C(C(=O)O)N3C(=O)[C@H]([C@@H](C)O)[C@H]3[C@H]2C)ccc(O)c1O [Compound 4] | 16 | 4 | 8 | 8 | 8 | 8 | 8
C[C@@H](O)[C@H]1C(=O)N2C(C(=O)O)=C(CN3CC(C(=O)NCc4ccc(O)c(O)c4Cl)C3)[C@H](C)[C@H]12 [Compound 39] | 8 | 1 | 2 | 8 | 8 | 4 | 16
C[C@@H](O)[C@H]1C(=O)N2C(C(=O)O)=C(CN3CCCC3CNC(=O)c3ccc(O)c(O)c3Cl)[C@H](C)[C@H]12 (some centres unmarked) [Compound 34] | >32 | 8 | 2 | 8 | 8 | 2 | 8
C[C@@H](O)[C@H]1C(=O)N2C(C(=O)O)=C(CN(C)CCNC(=O)c3ccc(O)c(O)c3F)[C@H](C)[C@H]12 [Compound 2] | 16 | 2 | 2 | 4 | 2 | 2 | 2
C[C@@H](O)[C@H]1C(=O)N2C(C(=O)O)=C(CN3CC(NC(=O)c4ccc(O)c(O)c4F)[C@@H](O)C3)[C@H](C)[C@H]12 (some centres unmarked) [Compound 36] | 32 |  | 4 | 4 | 8 | 4 | 
